Measured values reported in patent publication US12466856B2, “Echinocandin analogues and preparation method therefor” (SHANGHAI SENHUI MEDICINE CO., LTD., priority 2019, dated 2025).
Like-named read-outs stand apart in the source and are kept apart here. Starred links: 1 amine or outer side, 2 acyl side, 3 side chain; linkers in the order of their positions; H or OH if unused. Positions of bridges follow the written chain, without caps; N, C: chain ends. Non-standard residues stand in square brackets, D forms with d. Residues, ends and D or L forms follow the SMILES beside them. *: point of attachment. Orn(4R-OH,5R-OCH2CH2NMe3+) = C[N+](C)(C)CCO[C@@H](N[*:3])[C@H](O)C[C@H](N[*:1])C(=O)[*:2]; hTyr(3S-OH,4S-OH) = N[C@H](C(=O)O)[C@H](O)[C@@H](O)c1ccc(O)cc1; X1 = O=C(c1ccc(-c2ccc(-c3ccc(OCCCCCF)cc3)cc2)cc1)*; Pro(3S-OH,4S-Me) = C[C@H]1CN[C@H](C(=O)O)[C@H]1O; Hyp = O=C(O)[C@@H]1C[C@@H](O)CN1

Legend:
Type in all cases: cell-based
[1] = tested on: Aspergillus flavus ATCC 28539; experiment: MEC assay (CLSI M38-A2), Aspergillus flavus ATCC 28539; conditions: first batch; 28° C., 21-26 h
Protocol: The MIC assay was performed according to the guidelines of the Clinical and Laboratory Standards Institute (CLSI M27-A3) and the MEC assay according to the guidelines of the Clinical and Laboratory Standards Institute (CLSI M38-A2).
Colonies on the plate were covered with about 1 mL of 0.85% normal saline or sterile water (polysorbate 20 was added at a final concentration of 0.1%-0.01%). […] The homogeneous upper layer of the suspension was transferred to a new sterile tube, which was then sealed and vortexed for 15 s (be careful as the suspension may produce an aerosol when the cover is removed). The concentration of the suspension was adjusted until an OD value of 0.09-0.13 was achieved using a spectrophotometer at 530 nm. […] 100 μL of sample was added to each well of the 96-well plate within 2 h after dilution (the final spore concentration in the susceptibility testing plate was at 0.4×10^4 to 5×10^4 CFU/mL).
Aspergillus: For echinocandin drugs, comparisons were made to the growth control under a plate reader, and the minimum drug concentration that could cause the hyphae to form small, round, compact hyphal particles was defined as MEC. For accurate determination of MEC values, the plate must not be vortexed before reading.

[2] = tested on: Candida glabrata ATCC 15126; experiment: MIC assay (CLSI M27-A3), Candida glabrata ATCC 15126; conditions: Nakaseomyces glabratus, read-out: MIC, Candida glabrata ATCC 15126
Protocol: (§1) After a test compound was serially diluted, an MIC (minimum inhibitory concentration) assay was performed on the standard Candida strain and an MEC (minimum effective concentration) assay on the standard Aspergillus strain. The MIC assay was performed according to the guidelines of the Clinical and Laboratory Standards Institute (CLSI M27-A3) and the MEC assay according to the guidelines of the Clinical and Laboratory Standards Institute (CLSI M38-A2).
(§2) The frozen strain was passaged at least twice, and a single colony was picked and resuspended in normal saline or sterile water in a tube. The suspension was vortexed and adjusted to 0.5 McF (1×10^6 to 5×10^6 CFU/mL) using a spectrophotometer at wavelength 530 nm. The suspension was 50-fold diluted with normal saline and then 20-fold diluted with 1×RPMI 1640 broth (1×10^3 to 5×10^3 CFU/mL). 10 μL of the suspension was applied to an SDA plate for colony counting, with a range from about 10 to 50 single colonies.
(§3) At this time, the bacterium concentration in each well should be 0.5×10^3 to 2.5×10^3 CFU/mL.
(§4) For echinocandin drugs, Aspergillus was incubated at 28° C. for 21-26 h, and then the MEC results were read.
(§5) Yeast-type fungi: A disposable sealing film was applied to the 96-well plate, and the mixture was well mixed by shaking. Observation was performed through a plate reader with the naked eye. Comparisons were made to the growth control, and the minimum compound concentration corresponding to ≥50% growth inhibition was defined as MIC. Pictures were taken and saved using an automatic plate reader.

[3] = tested on: Candida tropicalis ATCC 750; experiment: MIC assay (CLSI M27-A3), Candida tropicalis ATCC 750; conditions: Candida tropicalis, read-out: MIC, Candida tropicalis ATCC 750
Protocol: as §1, §2, §3, §4, §5

Candida krusei ATCC 6258 = experiment: MIC assay (CLSI M27-A3), Candida krusei ATCC 6258; conditions: Pichia kudriavzevii, ATCC6258, 24 h, read-out: MIC, Candida krusei ATCC 6258
Protocol: as §1, §2, §3, §4, §5

[4] = tested on: Candida albicans ATCC 90029; experiment: MIC assay (CLSI M27-A3), Candida albicans ATCC 90029; conditions: Candida albicans, read-out: MIC, Candida albicans ATCC 90029
Protocol: as §1, §2, §3, §4, §5

[5] = tested on: Candida parapsilosis ATCC 22019; experiment: MIC assay (CLSI M27-A3), Candida parapsilosis ATCC 22019; conditions: Lodderomyces parapsilosis, ATCC22019, 24 h, read-out: MIC, Candida parapsilosis ATCC 22019
Protocol: as §1, §2, §3, §4, §5

[6] = tested on: Meyerozyma guilliermondii ATCC 6260; experiment: MIC assay (CLSI M27-A3), Meyerozyma guilliermondii ATCC 6260; conditions: Meyerozyma guilliermondii, read-out: MIC, Meyerozyma guilliermondii ATCC 6260
Protocol: as §1, §2, §3, §4, §5

[7] = ATCC15126, first batch, 24 h, 35° C., ≥50% growth inhibition
[8] = ATCC750, first batch, 24 h, 35° C.
[9] = ATCC90029, first batch, 24 h, 35° C., ≥50% growth inhibition
[10] = ATCC6260, first batch, 24 h, 35° C.

SMILES	MEC, Aspergillus flavus ATCC 28539 [1] [µg/mL]	MIC [2, 7] [µg/mL]	MIC [3, 8] [µg/mL]	MIC (Candida krusei ATCC 6258) [µg/mL]	MIC [4, 9] [µg/mL]	MIC [5] [µg/mL]	MIC [6, 10] [µg/mL]	MIC ([2]; ATCC15126, 24 h) [µg/mL]	MIC ([3]; ATCC750, 24 h) [µg/mL]	MIC ([4]; ATCC90029, 24 h) [µg/mL]	MIC ([6]; ATCC6260, 24 h) [µg/mL]
CCCCCOc1ccc(-c2ccc(-c3ccc(C(=O)N[C@H]4C[C@@H](O)[C@@H](OCC[N+]5(C)CCCCC5)NC(=O)[C@@H]5[C@@H](O)[C@@H](C)CN5C(=O)[C@H]([C@@H](C)O)NC(=O)[C@H]([C@H](O)[C@@H](O)c5ccc(O)cc5)NC(=O)[C@@H]5C[C@@H](O)CN5C(=O)[C@H]([C@@H](C)O)NC4=O)cc3)cc2)cc1 [Example 10]	0.031	0.5	0.031	0.5	0.25	2	4	–	–	–	–
C[C@@H](O)[C@@H]1NC(=O)[C@H]([C@H](O)[C@@H](O)c2ccc(O)cc2)NC(=O)[C@@H]2C[C@@H](O)CN2C(=O)[C@H]([C@@H](C)O)NC(=O)[C@@H](NC(=O)c2ccc(-c3ccc(-c4ccc(OCCCCCF)cc4)cc3)cc2)C[C@@H](O)[C@@H](OCC[N+](C)(C)C)NC(=O)[C@@H]2[C@@H](O)[C@@H](C)CN2C1=O [Example 11] (X1-[Orn(4R-OH,5R-OCH2CH2NMe3+)]T[Hyp][hTyr(3S-OH,4S-OH)]T[Pro(3S-OH,4S-Me)]; lactam 1-C)	0.031	–	–	0.5	–	4	–	0.5	0.031	0.125	2
CCCCCOc1ccc(-c2ccc(-c3ccc(C(=O)N[C@H]4C[C@@H](O)[C@@H](OCC5CCCC[N+]5(C)C)NC(=O)[C@@H]5[C@@H](O)[C@@H](C)CN5C(=O)[C@H]([C@@H](C)O)NC(=O)[C@H]([C@H](O)[C@@H](O)c5ccc(O)cc5)NC(=O)[C@@H]5C[C@@H](O)CN5C(=O)[C@H]([C@@H](C)O)NC4=O)cc3)cc2)cc1 (stereo partly drawn) [Example 2]	0.031	0.125	0.016	0.125	0.125	1	2	–	–	–	–
